In ChEMBL document CHEMBL3886153, “HIV protease inhibitors” (2015) one finds IC50 data, which are given here for eleven molecules.

The assay has as its target Gag-Pol polyprotein (Human immunodeficiency virus type 1 group M subtype B (isolate HXB2)(HIV-1), UniProt P04585). In words: Inhibition Assay: The inhibition of WT HIV-1 protease was studied using the reaction of the protease (expressed in Eschericia coli) with a peptide substrate [Val-Ser-Gln-Asn-(betanaphthyl)Ala-Pro-Ile-Val (SEQ ID NO:1)]. Compounds were tested using Procedure A. In Procedure A, the test compound was first preincubated with the enzyme in assay buffer (50 mM sodium acetate, pH 5.5, 100 mM NaCl, and 0.1% BSA) for 30 minutes at room temperature. Substrate was then added to 400 micromolar in a total volume of 80 microliters containing 10 picomolar HIV-1 protease and the reaction was incubated for 1 hour at 30° C. The reaction was quenched with the addition of 120 microliters of 10% phosphoric acid. The product formation was determined after separation of product and substrate on a Zorbax Eclipse XDB-C18 column (Agilent Technologies, Santa Clara, Calif.) connected to an Agilent 1100 high performance liquid chromatography system with fluorescence detection (excitation 270 nanometer and emission 330 nanometer).

A word on the IC50: it is the point on the concentration scale where inhibition reaches its midpoint. The low end stands for higher potency, the high end for lower potency. Molecule `COC(=O)N[C@H](C(=O)N[C@H](c1ccc([C@@H](CO)N(CCC(C)(C)C)S(=O)(=O)c2cn3ncnc3cn2)s1)C(F)(F)F)C(c1ccccc1)c1ccccc1` gave an IC50 of 3.59 nM. This counts as single-digit nanomolar.
`COC(=O)N[C@H](C(=O)NCc1ccc([C@@H](CO)N(CC2CC(F)(F)C2)S(=O)(=O)c2ccc(C(C)=O)cc2)s1)C(c1ccccc1)c1ccccc1` returned an IC50 of 11.9 nM.
The value for `COC(=O)N[C@H](C(=O)N[C@H](c1ccc([C@@H](CO)N(C(C)C)S(=O)(=O)c2cc(N)cs2)s1)C(F)(F)F)C(c1ccccc1)c1ccccc1` was 21.7 nM.
For `COC(=O)N[C@H](C(=O)N[C@H](c1ccc([C@@H](CO)N(C(C)C)S(=O)(=O)c2ccc(Cl)s2)s1)C(F)(F)F)C(c1ccccc1)c1ccccc1`, half-maximal inhibition (IC50) was put at 184 nM. Compared with the last molecule, the IC50 is about 8.5-fold higher.
`COC(=O)N[C@H](C(=O)N[C@H](c1ccc(C(CO)N(CCC(C)(C)C)S(=O)(=O)c2ccc(OC)nc2)s1)C(F)(F)F)C(c1ccccc1)c1ccccc1` (stereo partly specified): the IC50 came to 27.5 nM.
`COC(=O)N[C@H](C(=O)N[C@H](c1ccc([C@@H](CO)N(CCC(C)(C)C)S(=O)(=O)c2ccc(=O)[nH]c2)s1)C(F)(F)F)C(c1ccccc1)c1ccccc1`: the midpoint of inhibition, the IC50, lay at 9.42 nM.
For `COC(=O)N[C@H](C(=O)N[C@H](c1ccc([C@@H](CO)N(CCC(C)(C)C)S(=O)(=O)C2=CC3NC=C(Cl)C3C=C2)s1)C(F)(F)F)C(c1ccccc1)c1ccccc1` (stereo partly specified), the IC50 came out at 43.8 nM.
As for `COC(=O)N[C@H](C(=O)N[C@H](c1ccc([C@@H](CO)N(C(C)C)S(=O)(=O)c2ccc(N)c(Cl)c2)s1)C(F)(F)F)C(c1ccccc1)c1ccccc1`, half-maximal inhibition (IC50) required 92.5 nM.
For the molecule `COC(=O)N[C@H](C(=O)NCc1ccc([C@@H](CO)N(CC2CC(F)(F)C2)S(=O)(=O)c2ccc(C(C)O)cc2)s1)C(c1ccccc1)c1ccccc1` (stereo partly specified), the IC50 is 8.97 nM.
Turning to `COC(=O)N[C@H](C(=O)N[C@H](c1ccc([C@@H](CO)N(C(C)C)S(=O)(=O)c2ccc(N)cc2)s1)C(F)(F)F)[C@@H](c1ccccc1)c1c[nH]c2ncccc12`, the IC50 was 3.96 nM.
Turning to `COC(=O)N[C@H](C(=O)NCc1ccc([C@@H](CO)N(CC2CC(F)(F)C2)S(=O)(=O)c2ccc(C(O)C(F)(F)F)cc2)s1)C(c1ccccc1)c1ccccc1` (stereo partly specified), the IC50 was 26.9 nM.
